{
  "source": "patent US20010047099A1",
  "about": "“4-aminopicolinates and their use as herbicides” (priority 2000, published 2001)",
  "format_in_all_cases": "in vivo",
  "key": {"[1]": {"system": "sicklepod (Cassia obtusifolia)", "assay": "Range & Pasture Crop Testing (postemergence track sprayer)", "conditions": "Table 8; salts of Compound 1; dose for 80 percent control", "how_it_was_run": "(§1)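 Postemergence track-sprayer application at 187 L/ha, compounds formulated in 97:3 acetone:DMSO with 0.25% X-77, five rates (X serially diluted to 1/16×). Visual percent control (0–100 scale, burn down) rated 3 weeks after treatment; GR50/GR80 derived by probit analysis.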"}, "[2]": {"system": "yellow nutsedge (Cyperus esculentus)", "assay": "Postemergence herbicidal activity", "conditions": "Table 3; weeds in rice; rate 250 ppm", "how_it_was_run": "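Spray rate conversion: 1 ppm ≈ 1 g/Ha. The test used greenhouse seedlings (first/second true leaf) treated with a serially diluted compound spray. Control plants received carrier only. Efficacy was taken as visual injury at 2 weeks on a 0–100% scale.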"}, "[3]": {"system": "rice (Oryza sativa)", "assay": "Postemergence herbicidal activity, selectivity to rice", "conditions": "Table 3; crop (rice); rate 250 ppm", "method": "(§2) Seeds of the desired test plant species were planted in Grace-Sierra MetroMix® 306 planting mixture, which typically has a pH of 6.0 to 6.8 and an organic matter content of about 30 percent, in plastic pots with a surface area of 64 square centimeters. When required to ensure good germination and healthy plants, a fungicide treatment and/or other chemical or physical treatment was applied. The plants were grown for 7-21 days in a greenhouse with an approximate 15 hr photoperiod which was maintained at about 23-29° C. during the day and 22-28° C. during the night. Nutrients and water were added on a regular basis and supplemental lighting was provided with overhead metal halide 1000-Watt lamps as necessary. The plants were employed for testing when they reached the first or second true leaf stage.\nA weighed amount, determined by the highest rate to be tested, of each test compound was placed in a 20 mL glass vial and was dissolved in 4 mL of a 97:3 v/v (volume/volume) mixture of acetone and dimethyl sulfoxide (DMSO) to obtain concentrated stock solutions. […] The concentrated stock solutions obtained were diluted with an aqueous mixture containing acetone, water, isopropyl alcohol, DMSO, Atplus 411F crop oil concentrate, and Triton X-155 surfactant in a 48.5:39:10:1.5:1.0:0.02 v/v ratio to obtain spray solutions of known concentration. The solutions containing the highest concentration to be tested were prepared by diluting 2 mL aliquots of the stock solution with 13 mL of the mixture and lower concentrations were prepared by serial dilution of the stock solution. […]\n(§3) The treated plants and control plants were placed in a greenhouse as described above and watered by sub-irrigation to prevent wash-off of the test compounds. After 2 weeks the condition of the test plants as compared with that of the untreated plants was determined visually and scored on a scale of 0 to 100 percent where 0 corresponds to no injury and 100 corresponds to complete kill."}, "[4]": {"system": "wheat (Triticum aestivum)", "assay": "Postemergence herbicidal activity, selectivity to wheat", "conditions": "Table 5; crop (wheat); rate 250 ppm", "method": "as §2\nA weighed amount, determined by the highest rate to be tested, of each test compound was placed in a 20 mL glass vial and was dissolved in 4 mL of a 97:3 v/v (volume/volume) mixture of acetone and dimethyl sulfoxide (DMSO) to obtain concentrated stock solutions. […] The concentrated stock solutions obtained were diluted with an aqueous mixture containing acetone, water, isopropyl alcohol, DMSO, Atplus 411F crop oil concentrate, and Triton X-155 surfactant in a 48.5:39:10:1.5:1.0:0.02 v/v ratio to obtain spray solutions of known concentration. The solutions containing the highest concentration to be tested were prepared by diluting 2 mL aliquots of the stock solution with 13 mL of the mixture and lower concentrations were prepared by serial dilution of the stock solution. Approximately 1.5 mL aliquots of each solution of known concentration were sprayed evenly onto each of the test plant pots using a DeVilbiss atomizer driven by compressed air pressure of 2 to 4 psi ([…]) to obtain thorough coverage of each plant. Control plants were sprayed in the same manner with the aqueous mixture. In this test an application rate of 1 ppm results in the application of approximately 1 g/Ha.\nas §3"}, "[5]": {"system": "White Clover (Trifolium repens)", "assay": "Range & Pasture Crop Testing (postemergence track sprayer)", "conditions": "Table 10", "how_it_was_run": "as §1"}, "[6]": {"system": "broadleaf dock (Rumex obtusifolia)", "assay": "Range & Pasture Crop Testing (postemergence track sprayer)", "conditions": "Table 9; rate 70 g/Ha; 3 weeks after treatment", "method": "(§4) Rates are calculated based upon 5 doses being applied. The high rate (X), followed by serial dilutions of 1/2×, 1/4×, 1/8× and 1/16×. Compound requirements are based upon the 187 L/ha carrier volume, specifications of the delivery system (Mandel track sprayer) and generating 24 mL of technical spray material to allow for the dilutions and overage in the sprayer. [formula]\n(§5) All technical materials were formulated in 97:3 (acetone:DMSO) with 0.25% X-77. The total volume of solvent is maintained at less than 7%. An overhead Mandel track sprayer calibrated to deliver 187 L/ha was used for all treatment applications (postemergence). Picloram was included as a comparison treatment.\n(§6) Solutions were applied with a mechanized track-sprayer at the following settings:\n(§7) Spray height: 17 inches above top of plants\n(§8) This provides an application volume of 187 L/ha.\n(§9) Percent weed control (burn down) was evaluated 3 weeks after treatment. Visual control on a 0-100 linear scale was used, with 0 representing no control and 100 representing total control. Burn down ratings were taken for annual and perennial weed species."}, "[7]": {"system": "crested wheatgrass (Agropyron cristatum) (grass crop)", "assay": "Range & Pasture Crop Testing (postemergence track sprayer)", "conditions": "Table 9, rate 70 g/Ha, 3 weeks after treatment", "method": "as §4, §5, §6, §7, §8, §9"}, "[8]": {"system": "common ragweed (Ambrosia artemisiifolia)", "assay": "Range & Pasture Crop Testing (postemergence track sprayer)", "conditions": "Table 9; rate 70 g/Ha; 3 week evaluation", "method": "as §4, §5, §6, §7, §8, §9"}},
  "data": [
    {"compound": "Nc1cc(Cl)nc(C(=O)O)c1Cl", "note": "[Compound 1, 4-Amino-3,6-dichloropyridine-2-carboxylic acid]", "values": [
      {"measurement": "Post-emergent GR80 CASOB", "setting": "[1]", "value": 11, "unit": "g/Ha"},
      {"measurement": "post emergent evaluation - % control CYPES", "setting": "[2]", "value": 75, "unit": "%"},
      {"measurement": "post emergent evaluation - % control ORYZA", "setting": "[3]", "value": 10, "unit": "%"}
    ]},
    {"compound": "Nc1cc(Br)nc(C(=O)O)c1Cl", "note": "[Compound 14, 4-Amino-6-bromo-3-chloropyridine-2-carboxylic acid]", "values": [
      {"measurement": "post emergent evaluation - % control CYPES", "setting": "[2]", "value": 75, "unit": "%"},
      {"measurement": "post emergent evaluation - % control ORYZA", "setting": "[3]", "value": 10, "unit": "%"},
      {"measurement": "Post-emergent Evaluation - % control TRZAS", "setting": "[4]", "value": 0, "unit": "%"}
    ]},
    {"compound": "COC(=O)c1nc(Cl)cc(N)c1Cl", "note": "[Compound 3, methyl 4-amino-3,6-dichloropyridine-2-carboxylate]", "values": [
      {"measurement": "GR20 TRFRE", "setting": "[5]", "value": "<17.5", "unit": "g/ha"},
      {"measurement": "Post-emergent Evaluation - % control RUMOB", "setting": "[6]", "value": 100, "unit": "%"},
      {"measurement": "Post-emergent Evaluation - % control AGRCR", "setting": "[7]", "value": 30, "unit": "%"},
      {"measurement": "Post-emergent Evaluation - % control AMBEL", "setting": "[8]", "value": 100, "unit": "%"}
    ]},
    {"compound": "CCOC(=O)c1nc(Cl)cc(N)c1Cl", "note": "[Compound 4, ethyl 4-amino-3,6-dichloropyridine-2-carboxylate]", "values": [
      {"measurement": "GR20 TRFRE", "setting": "[5]", "value": "<17.5", "unit": "g/ha"}
    ]}
  ]
}
